Source: PubChem BioAssay AID2060884 (Molecular Pharmacology Branch, DTP, NCI, 2025)
pIC50: −log10 of the molar value. Where “and” joins values, the source holds several entries; their conditions need not be identical. Identical values can stand only once.

Tested on: NCI-H929 complex spheroids, viability % test/control
Test: Anticancer human tumor NCI-H929 cell line growth inhibition [RAS];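 note: compound exposure lasted seven days before viability was read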;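 for viability, T/C: 100% = DMSO vehicle control viability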
Conditions: for viability, T/C: stronger effect = lower value; active = viability on the fitted dose curve at most 10% of control; inactive = the rest
Outline: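 Agents were tested in combination matrices in half-log decrements from a top concentration at or near clinical Cmax (10 microM if undetermined). Targets were multi-cell spheroids of tumour lines plus HUVEC and MSC stromal cells.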

CC1(O)CCCC1n1c(=O)c(C(F)F)cc2cnc(NC3CCN(S(C)(=O)=O)CC3)nc21 (centres undefined) + CCn1c(-c2cccnc2C(C)OC)c2c3cc(ccc31)N1CCOC(CC(NC(=O)C(C(C)C)N(C)C(=O)C3(F)CCN(C(=O)C#CC(C)(C)N(C)C)CC3)C(=O)N3CCCC(N3)C(=O)OCC(C)(C)C2)C1
7.13: pIC50 (curve of first compound, second compound 0.00949 µM)
active: viability, T/C (second compound 0.000949 µM, first compound 0.316 µM) 1.35% | viability, T/C (second compound 0.000949 µM, first compound 1 µM) 2.44% | viability, T/C (second compound 0.000949 µM, first compound 3.16 µM) 1.45% | viability, T/C (second compound 0.000949 µM, first compound 10 µM) 0.12% | viability, T/C (second compound 0.003 µM, first compound 0.316 µM) 1.28% | viability, T/C (second compound 0.003 µM, first compound 1 µM) 2.8% | viability, T/C (second compound 0.003 µM, first compound 3.16 µM) 1.23% | viability, T/C (second compound 0.003 µM, first compound 10 µM) 0.1% | viability, T/C (second compound 0.00949 µM, first compound 0.316 µM) 0.97% | viability, T/C (second compound 0.00949 µM, first compound 1 µM) 2.52% | viability, T/C (second compound 0.00949 µM, first compound 3.16 µM) 1.36% | viability, T/C (second compound 0.00949 µM, first compound 10 µM) 0.09% | viability, T/C (second compound 0.03 µM, first compound 0.316 µM) 1.21% | viability, T/C (second compound 0.03 µM, first compound 1 µM) 2.78% | viability, T/C (second compound 0.03 µM, first compound 3.16 µM) 1.08% | viability, T/C (second compound 0.03 µM, first compound 10 µM) 0.11% | viability, T/C (second compound 0.0949 µM, first compound 0.316 µM) 1.16% | viability, T/C (second compound 0.0949 µM, first compound 1 µM) 2.55% | viability, T/C (second compound 0.0949 µM, first compound 3.16 µM) 1.28% | viability, T/C (second compound 0.0949 µM, first compound 10 µM) 0.12% | viability, T/C (second compound 0.3 µM, first compound 0.316 µM) 1.13% | viability, T/C (second compound 0.3 µM, first compound 1 µM) 2.31% | viability, T/C (second compound 0.3 µM, first compound 3.16 µM) 1.74% | viability, T/C (second compound 0.3 µM, first compound 10 µM) 0.16%
7.15: pIC50 (curve of first compound, second compound 0.03 µM)
7.20: pIC50 (curve of first compound, second compound 0.3 µM)
7.17: pIC50 (curve of first compound, second compound 0.0949 µM)
inactive: viability, T/C (second compound 0.000949 µM, first compound 0.0316 µM) 104% | viability, T/C (second compound 0.000949 µM, first compound 0.1 µM) 32.6% | viability, T/C (second compound 0.003 µM, first compound 0.0316 µM) 100% | viability, T/C (second compound 0.003 µM, first compound 0.1 µM) 34.8% | viability, T/C (second compound 0.00949 µM, first compound 0.0316 µM) 98.1% | viability, T/C (second compound 0.00949 µM, first compound 0.1 µM) 33.3% | viability, T/C (second compound 0.03 µM, first compound 0.0316 µM) 99.8% | viability, T/C (second compound 0.03 µM, first compound 0.1 µM) 28.9% | viability, T/C (second compound 0.0949 µM, first compound 0.0316 µM) 99.9% | viability, T/C (second compound 0.0949 µM, first compound 0.1 µM) 24.5% | viability, T/C (second compound 0.3 µM, first compound 0.0316 µM) 103% | viability, T/C (second compound 0.3 µM, first compound 0.1 µM) 13.5%
7.12: pIC50 (curve of first compound, second compound 0.000949 µM) | pIC50 (curve of first compound, second compound 0.003 µM)

Cc1nc(N2CCC3(CC2)COC(C)C3N)c(CO)nc1Sc1ccnc(N)c1Cl (centres undefined) + C#Cc1c(F)ccc2cc(O)cc(-c3ncc4c(N5CC6CCC(C5)N6)nc(OCC56CCCN5CC(F)C6)nc4c3F)c12
inactive: viability, T/C (second compound 0.0316 µM, first compound 0.0316 µM) 101% | viability, T/C (second compound 0.0316 µM, first compound 0.1 µM) 95.1% | viability, T/C (second compound 0.0316 µM, first compound 0.316 µM) 98% | viability, T/C (second compound 0.0316 µM, first compound 1 µM) 98.7% | viability, T/C (second compound 0.0316 µM, first compound 3.16 µM) 98.4% | viability, T/C (second compound 0.0316 µM, first compound 10 µM) 99.5% | viability, T/C (second compound 0.1 µM, first compound 0.0316 µM) 97.3% | viability, T/C (second compound 0.1 µM, first compound 0.1 µM) 97.6% | viability, T/C (second compound 0.1 µM, first compound 0.316 µM) 95.3% | viability, T/C (second compound 0.1 µM, first compound 1 µM) 99% | viability, T/C (second compound 0.1 µM, first compound 3.16 µM) 99% | viability, T/C (second compound 0.1 µM, first compound 10 µM) 107% | viability, T/C (second compound 0.316 µM, first compound 0.0316 µM) 96% | viability, T/C (second compound 0.316 µM, first compound 0.1 µM) 97.3% | viability, T/C (second compound 0.316 µM, first compound 0.316 µM) 99% | viability, T/C (second compound 0.316 µM, first compound 1 µM) 101% | viability, T/C (second compound 0.316 µM, first compound 3.16 µM) 101% | viability, T/C (second compound 0.316 µM, first compound 10 µM) 102% | viability, T/C (second compound 1 µM, first compound 0.0316 µM) 93.4% | viability, T/C (second compound 1 µM, first compound 0.1 µM) 102% | viability, T/C (second compound 1 µM, first compound 0.316 µM) 102% | viability, T/C (second compound 1 µM, first compound 1 µM) 100% | viability, T/C (second compound 1 µM, first compound 3.16 µM) 103% | viability, T/C (second compound 1 µM, first compound 10 µM) 103% | viability, T/C (second compound 3.16 µM, first compound 0.0316 µM) 103% | viability, T/C (second compound 3.16 µM, first compound 0.1 µM) 99.8% | viability, T/C (second compound 3.16 µM, first compound 0.316 µM) 99.5% | viability, T/C (second compound 3.16 µM, first compound 1 µM) 101% | viability, T/C (second compound 3.16 µM, first compound 3.16 µM) 102% | viability, T/C (second compound 3.16 µM, first compound 10 µM) 104% | viability, T/C (second compound 10 µM, first compound 0.0316 µM) 99.9% | viability, T/C (second compound 10 µM, first compound 0.1 µM) 104% | viability, T/C (second compound 10 µM, first compound 0.316 µM) 106% | viability, T/C (second compound 10 µM, first compound 1 µM) 103% | viability, T/C (second compound 10 µM, first compound 3.16 µM) 103% | viability, T/C (second compound 10 µM, first compound 10 µM) 85.6%
< 5.00: pIC50 (curve of first compound, second compound 0.0316 µM) | pIC50 (curve of first compound, second compound 0.1 µM) | pIC50 (curve of first compound, second compound 0.316 µM) | pIC50 (curve of first compound, second compound 1 µM) | pIC50 (curve of first compound, second compound 3.16 µM) | pIC50 (curve of first compound, second compound 10 µM)

CC(Nc1ccc2c(c1)OCCn1cc(N3C(=O)OCC3C(F)F)nc1-2)C(N)=O (centres undefined)
< 5.00 and 5.21: pIC50 (curve of compound)
inactive: viability, T/C (compound 0.0316 µM) 106% [middle of 4 runs] | viability, T/C (compound 0.1 µM) 102% [middle of 4 runs] | viability, T/C (compound 0.316 µM) 107% (2×) and 97.8% and 109% | viability, T/C (compound 1 µM) 108% [middle of 4 runs]
